The source of these data is US4883798A, “Pharmaceutical compositions” (EGIS Gyogyszergyar, priority 1987, dated 1989).

The nature of data set [1]: Acute toxicity in mice (p.o., 14 days observation). To be noted: mouse, in vivo, po. The protocol:
The experiments were performed in CFLP white mice of both sexes of 18-22 g body weight in groups of at least 10 animals. The test compound was applied p.o. dissolved in a solution containing 0.2% Tween-80 in distilled water in a volume of 20-30 ml/kg. The observation period after treatment lasted for 14 days. Statistical evaluation was carried out as described by Litchfield-Wilcoxon's method.
The above tests are carried out by standard methods. Reference is made to the following citations: Litchfield, J. T., Wilcoxon, F.: J. Pharmacol. Exp. Ther., 96, 99-113 (1949); Newbould, B. B.: Brit. J. Pharmacol. 35, 487 (1969); Shay, H., Kemarov, S. A., Fels, S. S., Meranze, D., Gruenstein, M., Siplet, H.: Gastroenterology 5, 45 (1945); Stickney, J. C., Northup, D. W., Van Liere, E. J.: Arch. int. Pharmacodyn. 147, 113 (1964); Winter, C. A., Risley E. A., Nuss, G. W.: Proc. Soc. Exp. Biol. Med. 111, 544-547 (1962).

The test system of another data set is rats. Nature of the data set: Analgesic activity "Writhing test" in rats (acetic acid i.p.). It is filed as in vivo, rat. To be noted: p.o., 1 hour before acetic acid i.p. On the procedure: Rats weighing 130-170 g were administered intraperitoneally 0.75% (v/v) acetic acid in a volume of 8 ml/kg. Five minutes after treatment with acetic acid the total number of characteristic writhing reactions was counted for 10 minutes and expressed as percentage of the control group.
(§1) The above tests are carried out by standard methods. […] Pharmacodyn. […] A., Risley E. A., Nuss, G. W.: Proc. Soc.

In a further data set the test system is granulocytes. Briefly: Measurement of chemiluminescence of granulocytes (PHA-stimulated, luminol). It is filed as cell-based, human (healthy volunteers). The settings on record: Homo sapiens, 0.25 h, read-out: IC50, chemiluminescence of granulocytes. The protocol:
The test-compounds were dissolved in dimethyl-sulfoxide (DMSO) in a concentration of 10^-1 M, dilutions were made in the incubation medium employed. Heparinized blood (10 IU/ml) was taken from healthy volunteers. The blood was diluted with equal wolume of dextran, then the white blood cells were separated by sedimentation. The granulocytes were separated by Uromio gradient. […] The cell suspension was put in dark box for 15 min. Luminol was dissolved in concentrated NH4 OH and diluted in the following solution:
50 ml Tris-Parker medium (containing 1,2 g Tris, pH=7,4)
150 ml Parker tissue culture medium
4 ml glucose 40% w/v in water
The Luminol solution (500 μl) was measured in plastic vials and put in dark (37° C.). The reaction was started by addition of the cells and stimulating agent (Phytohaemaglutinin-PHA-10 μg/ml).
The vials were continuously and gently shaken and the PHA stimulation was measured in every 2,5 min. for 15 min. in a Beckmann LS-100 spectrometer (coincidence switched off). The percentage of the counts measured was calculated in comparison with the solvent treated control cells. At least 5 concentrations of each compound were investigated in at least 3 parallels.

Another data set deals with Wistar rats. Briefly: Antipyretic effect in rats (brewer yeast-induced fever). It is filed as in vivo, rat (Wistar). On the procedure: The experiments were performed in groups of 10 Wistar rats of both sexes weighing 160-200 g. Fever was induced by 20% brewer yeast suspended in 0.9% saline solution, applied subcutaneously in a volume of 2 ml/rat distributed at various sites of the back. After 18 hours the test compound or the vehicle (control) was administered in volume of 10 ml./kg p.o. During this period the rats were fasted but received drinking water ad libitum. The rectal temperature of the animals was measured with a Thermotest thermometer 2 days before the administration of the test compound and after treatment every 60th minute. Animals with an increase of body temperature less than 0.8° C. were excluded from the experiment.
as §1

[2] abbreviates: PHA 10 μg/ml stimulation, luminol 32 μM, 37° C., 15 min.

Where two headings read alike, the source gives them in different places. A value given as a limit tells only on which side of the number the result lay.

Compound `COc1cc(Cc2cnc(N)nc2N)ccc1OCc1ccccc1` [Example 11, 2,4-Diamino-5-(3-methoxy-4-benzyloxy-benzyl)-pyrimidine] yielded a median lethal dose (LD50) at 336 h in data set [1] of over 2000 mg/kg. Also, in the data set with rats, the “Analgesic effect on rats, Therapeutical Index” value is on record as over 37.0.

On to `CCOc1ccc(Cc2cnc(N)nc2N)cc1OC` [Example 7, 2,4-Diamino-5-(3-methoxy-4-ethoxy-benzyl)-pyrimidine], for which the IC50 with granulocytes (setting [2]) was about 1 µM. For the same compound, the LD50 at 336 h in data set [1] is about 350 mg/kg. For the same compound, the Maximal temperature decrease with Wistar rats (100 mg/kg p.o.) stood at 0.7 °C. The “Analgesic effect on rats, Therapeutical Index” value in the data set on rats is on record as “about 7.6”.

For the compound `COc1cccc(Cc2cnc(N)nc2N)c1OC` [Example 5, 2,4-Diamino-5-(2,3-dimethoxy-benzyl)-pyrimidine], in data set [1], the 50% lethal dose (LD50) at 336 h is about 500 mg/kg. In addition, in the data set on rats, the “Analgesic effect on rats, Therapeutical Index” value is given as “about 5.0”.

`Br.COc1cc(Cc2cnc(N)nc2N)ccc1O` [Example 12, 2,4-Diamino-5-(3-methoxy-4-hydroxy-benzyl)-pyrimidine-hydrobromide] returned an LD50 at 336 h in data set [1] of over 2000 mg/kg. The “Analgesic effect on rats, Therapeutical Index” value in the data set with rats is on record as over 40.0.

`COc1ccc(Cc2cnc(N)nc2N)c(OC)c1` [Example 4, 2,4-Diamino-5-(2,4-dimethoxy-benzyl)-pyrimidine]: in data set [1], the LD50 at 336 h was about 2000 mg/kg. Besides, the “Analgesic effect on rats, Therapeutical Index” value in the data set on rats is given as “about 33.3”.

Consider `Nc1ncc(Cc2ccc3c(c2)OCO3)c(N)n1` [Example 6, 2,4-Diamino-5-(3,4-methylenedioxy-benzyl)-pyrimidine], for which the LD50 at 336 h in data set [1] is about 750 mg/kg. In addition, in the data set on Wistar rats (100 mg/kg p.o.), the Maximal temperature decrease was determined as 1.0 °C. For the same compound, the “Analgesic effect on rats, Therapeutical Index” value in the data set on rats is “about 57.7”.

For `COc1ccc(Cc2cnc(N)nc2N)cc1` [Example 1, 2,4-Diamino-5-(4-methoxy-benzyl)-pyrimidine], the half-inhibitory concentration (IC50) with granulocytes (setting [2]) was about 100 µM. The compound also registered an LD50 at 336 h in data set [1] of about 350 mg/kg. In the data set on Wistar rats (200 mg/kg p.o.), this compound showed a Maximal temperature decrease of 0.9 °C. The “Analgesic effect on rats, Therapeutical Index” value in the data set with rats was “about 8.1”.

Consider `CCCCC1C(=O)N(c2ccccc2)N(c2ccccc2)C1=O` [Phenylbutazone, 3,5-dioxo-1,2-diphenyl-4-(n-butyl)-pyrazolidine, reference compound], for which, in the data set on granulocytes (setting [2]), the IC50 came to 100 µM.

Compound `COc1cc(Cc2cnc(N)nc2N)cc(OC)c1` [Example 3, 2,4-Diamino-5-(3,5-dimethoxy-benzyl)-pyrimidine] gave an LD50 at 336 h in data set [1] of about 800 mg/kg. For the same compound, the “Analgesic effect on rats, Therapeutical Index” value in the data set on rats is listed as “about 8.0”.

As to `COc1ccc2c(c1)c(CC(=O)O)c(C)n2C(=O)c1ccc(Cl)cc1` [Indomethacin, 1-(p-chloro-benzoyl)-5-methoxy-2-methyl-1H-indole-3-acetic acid, reference compound], the IC50 with granulocytes was found to be 100 µM. In data set [1], this compound had an LD50 at 336 h of 22.5 mg/kg. The “Analgesic effect on rats, Therapeutical Index” value with rats came to 4.8.

Regarding `C=CCOc1ccc(Cc2cnc(N)nc2N)cc1OC.Cl` [Example 8, 2,4-Diamino-5-(3-methoxy-4-allyloxy-benzyl)-pyrimidine-hydrochloride], the concentration for half-maximal inhibition (IC50) in the data set with granulocytes (setting [2]) is about 1 µM. In data set [1], this compound showed a median lethal dose (LD50) at 336 h of about 1500 mg/kg. In the data set with Wistar rats (100 mg/kg p.o.), this compound gave a Maximal temperature decrease of 0.8 °C. Moreover, in the data set on rats, the “Analgesic effect on rats, Therapeutical Index” value is on record as “about 42.9”.

On to `CC(=O)Oc1ccccc1C(=O)O` [Acetylsalicylic acid, reference compound], for which, in the data set with Wistar rats (200 mg/kg p.o.), the Maximal temperature decrease worked out at 1.0 °C.

Regarding `COc1cccc(Cc2cnc(N)nc2N)c1` [Example 2, 2,4-Diamino-5-(3-methoxy-benzyl)-pyrimidine], the half-inhibitory concentration (IC50) in the data set with granulocytes (setting [2]) was about 100 µM. Moreover, in data set [1], the LD50 at 336 h was about 410 mg/kg. Besides, the “Analgesic effect on rats, Therapeutical Index” value with rats is recorded as “about 5.9”.

On to `CN1C(C(=O)Nc2ccccn2)=C(O)c2ccccc2S1(=O)=O` [Piroxicam, 4-hydroxy-2-methyl-N-2-pyridyl-2H-1,2-benzothiazine-3-carboxamide-1,1-dioxide, reference compound], for which, in the data set with granulocytes (setting [2]), the half-inhibitory concentration (IC50) was 100 µM.

In data set [1], `COCCOc1ccc(Cc2cnc(N)nc2N)cc1OC` [Example 10, 2,4-Diamino-5-(3-methoxy-4-methoxyethoxy-benzyl)-pyrimidine] had a median lethal dose (LD50) at 336 h of under 500 mg/kg. Further, the “Analgesic effect on rats, Therapeutical Index” value with rats is on record as under 14.3.

For the compound `CCCCOc1ccc(Cc2cnc(N)nc2N)cc1OC` [Example 9, 2,4-Diamino-5-(3-methoxy-4-n-butoxy-benzyl)-pyrimidine], the half-inhibitory concentration (IC50) with granulocytes (setting [2]) was about 1 µM. Also, the LD50 at 336 h in data set [1] is over 2000 mg/kg. Also, the “Analgesic effect on rats, Therapeutical Index” value in the data set with rats is listed as over 125.0.

As usually defined, the LD50 is the dose expected to kill half of the subjects tested. A low value points to a more toxic substance. What is called IC50 is the midpoint of a concentration-inhibition curve.
